Columns and labels:
[1] = test system: Primary human osteoblasts; assay: 3H-thymidine incorporation, proliferative response of human osteoblasts; type: cell-based
Method: (§1) Primary human osteoblasts were trypsinized and cell counts determined. Cells were resuspended at a concentration of 0.5×10^5 cells/ml in growth medium [Dulbeccos Modified Eagles Medium (DMEM) 10% Fetal Bovine Serum (FBS), 100 units Penicillin and 50 μg/ml Streptomycin]. A 100 μl aliquot of cells was added to each well in a 96 well dish. Cells were allowed to adhere for 24 hours and then refed with DMEM containing 0.5% FBS for 24 hours. Thereafter, several concentrations (10, 100, 500 μg/ml final concentration) of peptide in DMEM containing 0.5% FBS were added to different wells in quadruplicate. These plates were incubated in a cell culture incubator at 37° C. 5% CO2 for 48 hours. Subsequently, 0.1 μCi of ^3H-thymidine was added to each well, and incubated at 37° C. for an additional 3 hours prior to harvest. Cells were lysed and the lysate was placed in scintillation fluid and the amount of thymidine incorporated was determined by beta counting (in Counts Per Minute, or CPM).
To help determine a maximal stimulation of cell proliferation, the study was repeated with concentrations of 10, 50, 100, and 200 μg/ml final concentration) of the peptide represented by SEQ. ID NO: 1 in DMEM containing 0.5% FBS.
The experiments were set up as described for Example 1, with proliferation assessed by measurement of thymidine incorporation into newly synthesized DNA. […] These plates were incubated at 37° C. in 5% CO2 for 48 hours and processed for analysis as mentioned in Example 1.

[2] = Reverse phase HPLC for peptide integrity after disulfide bond formation; type: physicochemical
Method: (§2) The formation of inter- or intra-chain disulfide bonds was determined by Elman's test and a reverse phase HPLC method. The peptide represented by SEQ. ID NO: 1 was dissolved in 50 mM sodium acetate, pH 5.2, containing 1 mM EDTA to a stock solution of 10 mM. The stock solution was further diluted with either 50 mM sodium acetate buffer or Elman's reaction buffer ([…], pH 8.0, containing 1 mM EDTA) to a final concentration of 0.5 mM. Samples prepared with sodium acetate buffer were kept at 5° C. for HPLC analysis later.
To determine the integrity of the peptide of SEQ. ID NO: 1 after disulfide bond formations, samples in sodium acetate buffer (1G1) and in Elman's reaction buffer (1G2) were subjected to reverse phase HPLC after a 24 hour incubation at 37° C. In particular, a 0–80% acetonitrile gradient in 0.1% TFA was used over 15 minutes at a flow rate of 2 ml/min on a Vydac C-18 column. Detection was at 214 nm.

human chondrocytes = assay: 3H-thymidine incorporation, proliferative response of human chondrocytes; type: cell-based; settings: for 3H-Thymidine Incorporation Into Chondrocytes: Table 3, 48 hours
Method: as §1
(§3) The effect of the peptide […] (SEQ. ID NO: 1) on stimulation of human chondrocyte proliferation was assessed by thymidine incorporation as described above. The experiments were set up as detailed in Example 1. Following serum starvation, cells were treated with the peptide at concentration of 10, 100, and 500 μg/ml of peptide in DMEM containing 0.5% FBS. These plates were incubated at 37° C. in 5% CO2 for 48 hours and processed for analysis as described in Example 1.

human fibroblasts = assay: 3H-thymidine incorporation, proliferative response of human fibroblasts; type: cell-based; settings: for 3H-Thymidine Incorporation Into Fibroblasts: Table 4 (human fibroblasts per Example 4), 48 hours
Method: as §1
as §3, with “fibroblast” for “chondrocyte”

[3] = Elman's test (DTNB) for free sulfhydryl groups, with UV measurement; type: physicochemical; settings: for Free Sulfhydryl Group Content, Optical density At 412 nM: 0.5 mM peptide in Elman's reaction buffer pH 8.0
Method: as §2
The reagent used in Elman's test is 5,5′-dithio-bis-(2-nitrobenzoic acid), also know as DTNB. […] Sulfhydryl groups can be quantitated in a sample by comparison to a standard curve prepared with know concentrations of sulfhydryl-containing compound such as cysteine. The measurement of free sulfhydryl group was performed when the peptide was freshly prepared and after 24 hours incubation at 37° C. The incubation step was designed to mimic the cell culture conditions and to create conditions for inter- or intra-chain disulfide bond formations. To examine the integrity of the peptide after incubation, a UV measurement was performed when the peptide (SEQ. ID NO: 1) was freshly prepared and after 24 hours incubation.

[4] = after 24 hrs incubation at 37° C.

CGGGRWCG (synthesized primer) [ID NO: 1, synthesized by Invitrogen Corporation]
3H-Thymidine Incorporation Into Osteoblasts ([1]; Table 1A, peptide 0 μg/ml, DMEM 0.5% FBS, 48 hours): 591 +/− 39 CPM | stimulation of proliferation as compared to controls treated with 0.1% BSA ([1]; Table 1A, peptide 100 μg/ml): 2.5 fold | 3H-Thymidine Incorporation Into Osteoblasts ([1]; Table 1A, peptide 100 μg/ml, DMEM 0.5% FBS, 48 hours): 1228 +/− 157 CPM | stimulation of osteoblast proliferation ([1]; Table 1A, peptide 500 μg/ml): no statistical stimulation | 3H-Thymidine Incorporation Into Osteoblasts ([1]; Table 1A, peptide 500 μg/ml, DMEM 0.5% FBS, 48 hours): 629 +/− 46 CPM | 3H-Thymidine Incorporation Into Osteoblasts ([1]; Table 1B (repeat study), peptide 10 μg/ml): 807 +/− 45 CPM | 3H-Thymidine Incorporation Into Osteoblasts ([1]; Table 1B (repeat study), peptide 50 μg/ml): 948 +/− 62 CPM | 3H-Thymidine Incorporation Into Osteoblasts ([1]; Table 1B (repeat study), peptide 100 μg/ml): 1150 +/− 37 CPM | 3H-Thymidine Incorporation Into Osteoblasts ([1]; Table 1B (repeat study), peptide 200 μg/ml): 1565 +/− 98 CPM | concentration of maximal stimulation of proliferation (dose dependant) ([1]; Table 1B, 10-200 μg/ml tested): 200 µg/mL | stimulation of proliferation relative to cells cultured in the presence of serum ([1]; Table 1B, maximal stimulation at 200 μg/ml vs 10% FBS): approximately 75% | 3H-Thymidine Incorporation Into Osteoblasts ([1]; Table 2 (Example 2), peptide 200 ug/ml): 3446 +/− 333 CPM | stimulation of osteoblast proliferation (fold, words) ([1]; Table 2, peptide 200 ug/ml): two fold | disulfide structure formed, reverse phase HPLC ([2]; Elman's reaction buffer pH 8.0 (1G2), 24 hour incubation at 37° C.): formed intra-chain disulfide bonds (ring structure) and not a higher lever structure | integrity of the peptide by reverse phase HPLC ([2]; after 24 hours incubation at 37° C.): intact | sulfhydryl state, reverse phase HPLC ([2]; sodium acetate buffer pH 5.2 (1G1), 24 hours incubation): predominately contained free sulfhydryl groups | stimulation of proliferation of human chondrocytes (human chondrocytes; 10, 100, and 500 μg/ml): did not stimulate proliferation | 3H-Thymidine Incorporation Into Chondrocytes (human chondrocytes; peptide 10 μg/ml): 803 +/− 96 CPM | 3H-Thymidine Incorporation Into Chondrocytes (human chondrocytes; peptide 100 μg/ml): 726 +/− 88 CPM | 3H-Thymidine Incorporation Into Chondrocytes (human chondrocytes; peptide 500 μg/ml): 640 +/− 80 CPM | stimulation of proliferation of human fibroblasts (human fibroblasts; 10, 100, and 500 μg/ml): did not stimulate proliferation | 3H-Thymidine Incorporation Into Fibroblasts (human fibroblasts; peptide 10 μg/ml): 1281 +/− 86 CPM | 3H-Thymidine Incorporation Into Fibroblasts (human fibroblasts; peptide 100 μg/ml): 1103 +/− 76 CPM | 3H-Thymidine Incorporation Into Fibroblasts (human fibroblasts; peptide 500 μg/m1): 1088 +/− 64 CPM | free sulfhydryl group content after incubation ([3]; after 24 hour incubation at 37° C., 412 nM): reduced significantly | Optical density At 280 nM (UV measurement, integrity of the peptide) [3, 4]: 2.037 | Free Sulfhydryl Group Content, Optical density At 412 nM [3, 4]: 0.011 | change of absorbance at 280 nM ([3]; fresh vs 24 hour old samples): did not change | Optical density At 280 nM (UV measurement, integrity of the peptide) ([3]; freshly prepared): 2.127 | Free Sulfhydryl Group Content, Optical density At 412 nM ([3]; freshly prepared): 0.71
